How the values were obtained:
[1] = target: T1, human 5HT1A receptor (Homo sapiens, UniProt P08908); assay: Binding to 5HT1A: displacement of 3H-8-OH-DPAT in CHO cells overexpressing human 5HT1A receptor
T1 construct: expressed in transfected cells; host or cells: CHO
T1 sequence (P08908 1-422): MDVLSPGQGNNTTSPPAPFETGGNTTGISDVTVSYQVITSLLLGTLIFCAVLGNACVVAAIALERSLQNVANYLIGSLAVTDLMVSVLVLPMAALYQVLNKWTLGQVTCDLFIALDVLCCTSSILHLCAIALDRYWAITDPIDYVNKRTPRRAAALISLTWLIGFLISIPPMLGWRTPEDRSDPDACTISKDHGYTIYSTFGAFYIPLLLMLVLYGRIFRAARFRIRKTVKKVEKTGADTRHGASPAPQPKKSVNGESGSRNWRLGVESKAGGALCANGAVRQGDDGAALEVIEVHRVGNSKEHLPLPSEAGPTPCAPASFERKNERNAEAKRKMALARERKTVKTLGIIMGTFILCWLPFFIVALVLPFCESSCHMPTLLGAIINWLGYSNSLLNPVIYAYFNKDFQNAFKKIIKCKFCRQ
Experimental: 10 ug of protein per well preincubated 15 min and incubated 60 min RT.

[2] = target: T2, 5HT3 (Homo sapiens, UniProt P46098); assay: Binding to 5HT3: displacement of 3H-GR65630 in HEK-5HT3; conditions: displacement of 3H-GR65630 (0.5 nM), HEK-5HT3, 3 ug of protein per well
T2 construct: expressed in transfected cells; host or cells: HEK (HEK-5HT3)
T2 sequence (P46098 24-478): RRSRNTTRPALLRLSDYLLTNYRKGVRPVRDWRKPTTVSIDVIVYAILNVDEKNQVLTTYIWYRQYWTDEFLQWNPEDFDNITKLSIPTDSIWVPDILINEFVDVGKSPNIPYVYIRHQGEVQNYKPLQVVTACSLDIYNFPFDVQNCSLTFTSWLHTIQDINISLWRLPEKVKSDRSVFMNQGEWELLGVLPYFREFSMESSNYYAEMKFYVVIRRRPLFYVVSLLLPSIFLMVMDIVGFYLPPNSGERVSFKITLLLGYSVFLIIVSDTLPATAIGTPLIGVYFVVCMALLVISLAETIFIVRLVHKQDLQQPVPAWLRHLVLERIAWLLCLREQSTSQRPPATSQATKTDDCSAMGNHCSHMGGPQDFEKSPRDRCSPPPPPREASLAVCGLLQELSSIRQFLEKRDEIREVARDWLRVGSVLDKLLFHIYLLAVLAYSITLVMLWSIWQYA
Experimental: FIG. 6. Binding of 1319 to 5HT3. Displacement of 3H-GR65630 (0.5 nM). Data are presented as mean±SD, n=4 from one experiment. Kd of GR65630 was determined from a saturation assay.
Displacement of 3H-GR65630 (0.5 nM) with increasing concentrations of 1319 (from 0.1 nM to 10 uM), Lerisetron-C6-acyl and not derivatized Lerisetron (from 0.1 nM to 30 uM), in HEK-5HT3: 3 ug of protein per well is shown in Table 11.

[3] = system: Ataxin-I mRNA; assay: Knockdown of Ataxin I in Purkinje cells of the cerebellum (in situ hybridization, optical density); assay type: in vivo, mouse; conditions: C57/B16 mice, intranasal 4 mg/kg/day for four consecutive days, 24 hours after last administration; ± s.e.m.
Source text: FIG. 5. Microphotographs of sagittal cerebellum sections labeled with a probe for Ataxin-1. A) and B) Arrows indicate the Purkinje cells layer, ML: molecular layer, GL: granular layer. A: example of animal treated with PBS, B: example of animal treated with 5-nonyloxytryptamine oxalate conjugated to a siRNA against mRNA for Ataxin-I (NP-1297). C: Quantification of optical density (ImageJ) in the Purkinje cells layer in arbitrary units (O.D. (a.u.)) normalized against PBS showing a significant decrease (48%±5 s.e.m.) in animals treated with NP-1297 (t test, *p<0.02).
5-HT1B receptors are expressed in the Purkinje cells of the cerebellum and using the agonist 5-nonyloxytryptamine oxalate for these receptors, conjugated to a siRNA against mRNA for Ataxin-I, we knockdown this protein only in Purkinje cells. Ataxin-1-siRNA sequence (Lee et al., Nat Neurosci 11, 1137-1139 (2008))
For this, five C57/B16 wild type mice were intranasally administered with the conjugated molecule at a concentration of 4 mg/kg/day for four consecutive days and five animals of the same strain were treated with PBS as a control; 24 hours after last administration animals were sacrificed and the brain was processed for in situ hybridization with colorimetric detection. A probe 45 nucleotides long complementary to mouse Ataxin-I mRNA and labeled with digoxigenin at both ends (5′ and 3′) was used. […]

Nc1ccc(CCN2CCN(c3cccc(C(F)(F)F)c3)CC2)cc1 [LY-165,163, 1-[2-(4-aminophenyl)ethyl]-4-(3-trifluoromethylphenyl)-piperazine]
IC50 [1]: 1.1 nM

c1ccc(Cn2c(N3CCNCC3)nc3ccccc32)cc1 [Lerisetron, 1-benzyl-2-piperazin-1-yl-1H-benzimidazole]
IC50 [2]: 7 nM

NP-1297: 5-nonyloxytryptamine oxalate conjugated to a siRNA against mRNA for Ataxin-I (SEQ ID NO: 9/10) (chain 1 GAUCUAACGUGGGCAAGUATT; chain 2 UACUUGCCCACGUUAGAUCTT; 5-nonyloxytryptamine conjugated, attachment position not given here)
Decrease of optical density (Ataxin-1 probe) in the Purkinje cells layer normalized against PBS [3]: 48%±5

— patent publication US9938525B2, “Compositions and methods for selective delivery of oligonucleotide molecules to cell types” (nLife Therapeutics, S.L., priority 2012, dated 2018)
